# According to patent US20230047393A1 (EWHA DrugDesignHouse Co.,Ltd., priority 2021, published 2023):
# Read-outs that look alike come from different tables or passages of the source.
# What was measured:
# [1] = test system: liver of bile duct ligated rats; conditions: cited from earlier work
# [2] = test system: liver of CCl4-treated mice; conditions: cited from earlier work
# MMTV/c-Neu mice = conditions: cited from earlier work
# [3] = test system: adhesion bands mouse model; conditions: cited from earlier work
# [4] = Solubility of EW-7197 in PEG/poloxamer formulations (5° C. and 25° C.); type: physicochemical; conditions: formulations containing 25% PEG4000 and 10% poloxamer 407
# Method: After confirming that the formulation was suspended at each temperature, the suspension was filtered. The EW-7197 content of the filtrate was measured by HPLC.
# Col8a2 knock-in mice = conditions: cited from earlier work
# [5] = test system: MDA-MB-231-xenografted mouse model; conditions: cited from earlier work
# [6] = test system: kidney of mice with unilateral ureteral obstruction; conditions: cited from earlier work
# rat esophagus = conditions: after SEMS placement in the rat esophagus; cited from earlier work
# [7] = test system: lung of bleomycin-treated mice; conditions: cited from earlier work
# [8] = test system: mouse model of ulcerative colitis; conditions: cited from earlier work
# [9] = test system: peritoneal adhesions rat model; conditions: dose-dependent; cited from earlier work
# [10] = Photostability of EW-7197 in buffer solutions (ultraviolet and visible light); type: physicochemical; conditions: solution left in a room for a whole day under fluorescent lighting (about 1000 lx per hour)
# Method: The formulations used in the photostability test are the same formulations (excluding A13, A16, A19, and A22) used for evaluation of thermal stability shown in Table 4. After preparation, each formulation was filtered. About 3 mL of the filtrate was filled in a glass ampule, and illuminated with ultraviolet light of 50 W·h/m^2 and visible light of 300,000 lx·hr by a photostability test chamber. […] Generally, illumination under white fluorescent lighting is about 1000 lx per hour. […] Therefore, EW-7197 needs to be stored in light shielded conditions.
# [11] = Effect of metal ion on thermal stability of EW-7197 (40° C.); type: physicochemical; conditions: 100 ppm aluminum ions or iron ions, with or without EDTA, PE bottles
# Method: After the preparation of each formulation, the formulation was filtered. The filtrate was filled into a PE bottle, and stored in a thermostatic chamber (40° C.).
# In this study, the final concentration of aluminum ions or iron ions was 100 ppm, and the PE ophthalmic bottles were used as containers.
# mouse B16 melanoma model = conditions: cited from earlier work; for progression of melanoma: mouse B16 melanoma model, with enhanced CTL responses
# [12] = Solubility of EW-7197 with various solubilizing agents (4° C. and 25° C.); type: physicochemical; conditions: for EW-7197 dissolved: 1% of each surfactant, boric acid/sodium borate pH7.5
# Excerpt: The buffer solution used in this study was 0.9% boric acid/0.1% sodium borate (pH7.5). […] After confirming that the formulations were suspended at each temperature, each formulation was filtered.
# [13] = Solubility of EW-7197 at various pH values; type: physicochemical; conditions: thermodynamic from solid
# Excerpt: In order to use EW-7197 for treating or preventing TFG-β signaling related ocular diseases, postsurgical peritoneal adhesions, postsurgical anastomotic strictures, hypertrophic scar, or keloid in human, formulation development of an aqueous solution containing appropriate amounts of EW-7197 is needed.
# CML-affected mice = conditions: combined with ponatinib, compared to ponatinib alone; cited from earlier work
# [14] = test system: 4T1 orthotopic-grafted mice; conditions: cited from earlier work
# [15] = test system: human lens epithelial cells line SRA01/04; conditions: SRA01/04 cells, nontoxic concentrations; cited from earlier work
# rabbit PVR trauma model = conditions: intravitreal injection; cited from earlier work
# [16] = test system: TFG-β2-treated trabecular meshwork cell cultures; conditions: cited from earlier work
# rabbit GFS model = conditions: cited from earlier work
# [17] = test system: TFG-β2-treated perfused human anterior segments; conditions: cited from earlier work
# [18] = test system: rabbit model of trabeculectomy; conditions: cited from earlier work
# [19] = test system: laser-induced CNV in retina of mice; conditions: day 14 after laser-induced CNV formation, vs PBS treated control (p<0.05, n=5 per group); cited from earlier work
compound,measurement,setting,value
"Cc1cccc(-c2[nH]c(CNc3ccccc3F)nc2-c2ccc3ncnn3c2)n1 [EW-7197, 2-fluoro-N-((5-(6-methylpyridin-2-yl)-4-([1,2,4]triazolo[1,5-a]pyridin-6-yl)-1H-imidazol-2-yl)methyl)aniline]","expression of collagen, aSMA, fibronectin, 4-hydroxy-2,3-nonenal, and integrins",[1],decreases
same,"expression of collagen, aSMA, fibronectin, 4-hydroxy-2,3-nonenal, and integrins",[2],decreases
same,"Smad/TGF-β signaling, cell migration, invasion, and lung metastasis",MMTV/c-Neu mice,inhibits
same,frequency and stability of adhesion bands,[3],prevents
same,solubility of EW-7197,[4],about 0.125%
same,fibronectin expression,"Col8a2 knock-in mice; 0.004%, 0.02%, and 0.1%, dose-dependent",suppresses
same,decrease in corneal endothelial cells and/or corneal endothelial disorders represented by overexpression of ECM,Col8a2 knock-in mice; 0.02% eye drop administration,effectively suppresses
same,paclitaxel-induced epithelial-mesenchymal transition (EMT) and cancer stem-like cells properties,[5],suppresses
same,"expression of collagen, aSMA, fibronectin, 4-hydroxy-2,3-nonenal, and integrins",[6],decreases
same,granulation tissue formation,rat esophagus,suppresses
same,"expression of collagen, aSMA, fibronectin, 4-hydroxy-2,3-nonenal, and integrins",[7],decreases
same,clinical symptoms of colitis,[8],ameliorates
same,excessive collagen deposition and fibrosis in colitis tissues,[8],inhibits
same,overexpression of proinflammatory and profibrotic genes,[8],suppresses
same,"incidence, quality, and tenacity of peritoneal adhesions",[9],reduces
same,EW-7197 decomposed by light,[10],1-5%
same,effect of metal ions on thermal stability of EW-7197,[11],neither aluminum ions nor iron ions affected the thermal stability
same,progression of melanoma,mouse B16 melanoma model,suppress
same,efficacy compared with LY-2157299,mouse B16 melanoma model; oral EW-7197 2.5 mg/kg once daily vs LY-2157299 75 mg/kg bid,more effective
same,EW-7197 dissolved,[12]; 4° C.,about 0.01%
same,EW-7197 dissolved,[12]; 25° C.,about 0.02%
same,upper limit of concentration of EW-7197,"[12]; formulation with 1% tyloxapol, 4% PEG4000, and 2% niacinamide",about 0.015%
same,solubility,"[13]; 0.1N NaOH, pH 12.86, aqueous buffer, pH 12.86, 0.1N NaOH, pH after equilibration 12.53, read-out: Solubility Average (n = 2)",437 µg/mL
same,solubility,"[13]; 0.1N NaOH, pH 12.86, aqueous buffer, pH 12.86, 0.1N NaOH, pH after equilibration 12.53, read-out: Solubility Trial 1",396 µg/mL
same,solubility,"[13]; 0.1N NaOH, pH 12.86, aqueous buffer, pH 12.86, 0.1N NaOH, pH after equilibration 12.53, read-out: Solubility Trial 2",478 µg/mL
same,solubility,"[13]; citrate buffer, pH 3, aqueous buffer, pH 3.0, Citrate buffer, pH after equilibration 3.30, read-out: Solubility Average (n = 2)",1010 µg/mL
same,solubility,"[13]; citrate buffer, pH 3, aqueous buffer, pH 3.0, Citrate buffer, pH after equilibration 3.30, read-out: Solubility Trial 1",1000 µg/mL
same,solubility,"[13]; citrate buffer, pH 3, aqueous buffer, pH 3.0, Citrate buffer, pH after equilibration 3.30, read-out: Solubility Trial 2",1030 µg/mL
same,solubility,"[13]; citrate buffer, pH 4, aqueous buffer, pH 4.0, Citrate buffer, pH after equilibration 4.16, read-out: Solubility Average (n = 2)",105 µg/mL
same,solubility,"[13]; citrate buffer, pH 4, aqueous buffer, pH 4.0, Citrate buffer, pH after equilibration 4.16, read-out: Solubility Trial 1",110 µg/mL
same,solubility,"[13]; citrate buffer, pH 4, aqueous buffer, pH 4.0, Citrate buffer, pH after equilibration 4.16, read-out: Solubility Trial 2",100 µg/mL
same,solubility,"[13]; citrate buffer, pH 5, aqueous buffer, pH 5.0, Citrate buffer, pH after equilibration 4.90, read-out: Solubility Average (n = 2)",20 µg/mL
same,solubility,"[13]; citrate buffer, pH 5, aqueous buffer, pH 5.0, Citrate buffer, pH after equilibration 4.90, read-out: Solubility Trial 1",19 µg/mL
same,solubility,"[13]; citrate buffer, pH 5, aqueous buffer, pH 5.0, Citrate buffer, pH after equilibration 4.90, read-out: Solubility Trial 2",21 µg/mL
same,solubility,"[13]; hydrochloric acid buffer, pH 1.2, simulated gastric fluid, pH 1.2, Hydrochloric acid buffer, pH after equilibration 2.81, read-out: Solubility Average (n = 2)",25000 µg/mL
same,solubility,"[13]; hydrochloric acid buffer, pH 1.2, simulated gastric fluid, pH 1.2, Hydrochloric acid buffer, pH after equilibration 2.81, read-out: Solubility Trial 1",25100 µg/mL
same,solubility,"[13]; hydrochloric acid buffer, pH 1.2, simulated gastric fluid, pH 1.2, Hydrochloric acid buffer, pH after equilibration 2.81, read-out: Solubility Trial 2",25000 µg/mL
same,solubility,"[13]; hydrochloric acid buffer, pH 2, simulated gastric fluid, pH 2.0, Hydrochloric acid buffer, pH after equilibration 2.97, read-out: Solubility Average (n = 2)",2900 µg/mL
same,solubility,"[13]; hydrochloric acid buffer, pH 2, simulated gastric fluid, pH 2.0, Hydrochloric acid buffer, pH after equilibration 2.97, read-out: Solubility Trial 1",2930 µg/mL
same,solubility,"[13]; hydrochloric acid buffer, pH 2, simulated gastric fluid, pH 2.0, Hydrochloric acid buffer, pH after equilibration 2.97, read-out: Solubility Trial 2",2880 µg/mL
same,solubility,"[13]; phosphate buffer, pH 6, aqueous buffer, pH 6.0, Phosphate buffer, pH after equilibration 5.96, read-out: Solubility Average (n = 2)",12 µg/mL
same,solubility,"[13]; phosphate buffer, pH 6, aqueous buffer, pH 6.0, Phosphate buffer, pH after equilibration 5.96, read-out: Solubility Trial 1",12 µg/mL
same,solubility,"[13]; phosphate buffer, pH 6, aqueous buffer, pH 6.0, Phosphate buffer, pH after equilibration 5.96, read-out: Solubility Trial 2",12 µg/mL
same,solubility,"[13]; phosphate buffer, pH 6.8, aqueous buffer, pH 6.8, Phosphate buffer, pH after equilibration 6.79, read-out: Solubility Average (n = 2)",12 µg/mL
same,solubility,"[13]; phosphate buffer, pH 6.8, aqueous buffer, pH 6.8, Phosphate buffer, pH after equilibration 6.79, read-out: Solubility Trial 1",11 µg/mL
same,solubility,"[13]; phosphate buffer, pH 6.8, aqueous buffer, pH 6.8, Phosphate buffer, pH after equilibration 6.79, read-out: Solubility Trial 2",13 µg/mL
same,solubility,"[13]; phosphate buffer, pH 7.4, aqueous buffer, pH 7.4, Phosphate buffer, pH after equilibration 7.32, read-out: Solubility Average (n = 2)",13 µg/mL
same,solubility,"[13]; phosphate buffer, pH 7.4, aqueous buffer, pH 7.4, Phosphate buffer, pH after equilibration 7.32, read-out: Solubility Trial 1",13 µg/mL
same,solubility,"[13]; phosphate buffer, pH 7.4, aqueous buffer, pH 7.4, Phosphate buffer, pH after equilibration 7.32, read-out: Solubility Trial 2",13 µg/mL
same,solubility,"[13]; water / aqueous solution, aqueous buffer, in an acceptable pH range for ophthalmic solution, read-out: water solubility",10 to 20 µg/mL
same,solubility,"[13]; water, pH 7.17, water, Water, pH after equilibration 7.17, read-out: Solubility Average (n = 2)",9 µg/mL
same,solubility,"[13]; water, pH 7.17, water, Water, pH after equilibration 7.17, read-out: Solubility Trial 1",9 µg/mL
same,solubility,"[13]; water, pH 7.17, water, Water, pH after equilibration 7.17, read-out: Solubility Trial 2",9 µg/mL
same,disease relapse and survival,CML-affected mice,significantly delays disease relapse and prolongs survival
same,CTL activity,[14],enhanced
same,"Smad/TGF-β signaling, cell migration, invasion, and lung metastasis",[14],inhibits
Cc1ccc(=O)n(-c2ccccc2)c1 [Pirfenidone],"TGF-β-induced proliferation, migration, and EMT",[15],inhibits
c1ccc(-c2[nH]ncc2-c2ccnc3ccccc23)nc1 [LY-364947],PVR development and subsequent tractional retinal detachment,rabbit PVR trauma model,prevents
NC(=O)c1ccc(-c2nc(-c3ccc4c(c3)OCO4)c(-c3ccccn3)[nH]2)cc1 [SB-431542],levels of fibronectin and plasminogen activator inhibitor-1 (PAI-1),[16],reduces
same,post-surgical scarring and fibrosis after GFS,rabbit GFS model,decreases
same,level of fibronectin,[17],reduces
Cc1cccc(-c2[nH]c(C(C)(C)C)nc2-c2ccc3c(c2)OCO3)n1 [SB-505124],ocular scarring following GFS,rabbit GFS model,prevents
same,TFG-β activity,[18],inhibited
same,bleb survival,[18],promoted
"Cc1cccc(-c2nn3c(c2-c2ccnc4ccc(C(N)=O)cc24)CCC3)n1 [LY-2157299, reference compound]",neovascular area in retina,[19],reduces
same,progression of melanoma,mouse B16 melanoma model,suppress
